Source: ChEMBL document CHEMBL1126299, “Synthesis and structure-activity relationships of cephalosporins with C-3' catechol-containing residues” (J Med Chem, 1992)
Converted amounts (≈) assume the structure as drawn.

These compounds were tested on Staphylococcus aureus (assay: microbe, parasite or virus in culture).
Description: The compound was tested for minimum inhibitory concentration in Staphylococcus aureus,147N penicillin sensitive Staphylococcus aureus

Row | Compound | MIC [µg/mL]
1 | CC(C)(O/N=C(\C(=O)N[C@@H]1C(=O)N2C(C(=O)O)=C(CCNC(=O)Nc3ccc(O)c(O)c3)CSC12)c1csc(N)n1)C(=O)O (stereo partly drawn) | 64 (≈ 98.5 µM)
2 | CC(=O)Oc1ccc(C(=O)OCC2=C(C(=O)O)N3C(=O)[C@@H](NC(=O)Cc4cccs4)C3SC2)cc1OC(C)=O (stereo partly drawn) | 0.06 (≈ 0.104 µM)

Each compound was assayed on Pseudomonas aeruginosa (assay: microbe, parasite or virus in culture).
Description: Minimum inhibitory concentration in Pseudomonas aeruginosa,799/61 permeability mutant

Row | Compound | MIC [µg/mL]
3 | CC(C)(O/N=C(\C(=O)N[C@@H]1C(=O)N2C(C(=O)O)=C(CCNC(=O)Nc3ccc(O)c(O)c3)CSC12)c1csc(N)n1)C(=O)O (stereo partly drawn) | 0.125 (≈ 0.192 µM)
4 | CC(=O)Oc1ccc(C(=O)OCC2=C(C(=O)O)N3C(=O)[C@@H](NC(=O)Cc4cccs4)C3SC2)cc1OC(C)=O (stereo partly drawn) | 0.125 (≈ 0.218 µM)

These compounds were tested on Enterobacter cloacae (assay: microbe, parasite or virus in culture).
Description: Minimum inhibitory concentration in Enterobacter cloacae, P99+ constitutive depressed type 1 lactamase producer

Row | Compound | MIC [µg/mL]
5 | CC(C)(O/N=C(\C(=O)N[C@@H]1C(=O)N2C(C(=O)O)=C(CCNC(=O)Nc3ccc(O)c(O)c3)CSC12)c1csc(N)n1)C(=O)O (stereo partly drawn) | 16 (≈ 24.6 µM)
6 | CC(=O)Oc1ccc(C(=O)OCC2=C(C(=O)O)N3C(=O)[C@@H](NC(=O)Cc4cccs4)C3SC2)cc1OC(C)=O (stereo partly drawn) | > 128

Test system: Staphylococcus aureus
Assay: microbe, parasite or virus in culture
Remark: another data set of the same source
Description: The compound was tested for minimum inhibitory concentration in Staphylococcus aureus Oxford penicillin sensitive Staphylococcus aureus

Row | Compound | MIC [µg/mL]
7 | CC(C)(O/N=C(\C(=O)N[C@@H]1C(=O)N2C(C(=O)O)=C(CCNC(=O)Nc3ccc(O)c(O)c3)CSC12)c1csc(N)n1)C(=O)O (stereo partly drawn) | 64 (≈ 98.5 µM)
8 | CC(=O)Oc1ccc(C(=O)OCC2=C(C(=O)O)N3C(=O)[C@@H](NC(=O)Cc4cccs4)C3SC2)cc1OC(C)=O (stereo partly drawn) | 0.03 (≈ 0.0522 µM)

Test system: Enterobacter cloacae
Assay: microbe, parasite or virus in culture
Remark: another data set of the same source
Description: Minimum inhibitory concentration in Enterobacter cloacae, I+401029 inducible type 1 lactamase producer

Row | Compound | MIC [µg/mL]
9 | CC(C)(O/N=C(\C(=O)N[C@@H]1C(=O)N2C(C(=O)O)=C(CCNC(=O)Nc3ccc(O)c(O)c3)CSC12)c1csc(N)n1)C(=O)O (stereo partly drawn) | 0.5 (≈ 0.77 µM)
10 | CC(=O)Oc1ccc(C(=O)OCC2=C(C(=O)O)N3C(=O)[C@@H](NC(=O)Cc4cccs4)C3SC2)cc1OC(C)=O (stereo partly drawn) | 128 (≈ 223 µM)

These compounds were tested on Citrobacter freundii (assay: microbe, parasite or virus in culture).
Description: Minimum inhibitory concentration in Citrobacter freundii, I+382010 inducible type 1 lactamase producer

Row | Compound | MIC [µg/mL]
11 | CC(C)(O/N=C(\C(=O)N[C@@H]1C(=O)N2C(C(=O)O)=C(CCNC(=O)Nc3ccc(O)c(O)c3)CSC12)c1csc(N)n1)C(=O)O (stereo partly drawn) | 0.25 (≈ 0.385 µM)
12 | CC(=O)Oc1ccc(C(=O)OCC2=C(C(=O)O)N3C(=O)[C@@H](NC(=O)Cc4cccs4)C3SC2)cc1OC(C)=O (stereo partly drawn) | 16 (≈ 27.8 µM)

Test system: Pseudomonas aeruginosa
Assay: microbe, parasite or virus in culture
Remark: another data set of the same source
Description: In vitro minimum inhibitory concentration against Pseudomonas aeruginosa (PU21).

Row | Compound | MIC [µg/mL]
13 | CC(C)(O/N=C(\C(=O)N[C@@H]1C(=O)N2C(C(=O)O)=C(CCNC(=O)Nc3ccc(O)c(O)c3)CSC12)c1csc(N)n1)C(=O)O (stereo partly drawn) | 0.125 (≈ 0.192 µM)
14 | CC(=O)Oc1ccc(C(=O)OCC2=C(C(=O)O)N3C(=O)[C@@H](NC(=O)Cc4cccs4)C3SC2)cc1OC(C)=O (stereo partly drawn) | > 128

Test system: Pseudomonas aeruginosa
Assay: microbe, parasite or virus in culture
Remark: another data set of the same source
Description: Minimum inhibitory concentration in Pseudomonas aeruginosa,799WT parent organism

Row | Compound | MIC [µg/mL]
15 | CC(C)(O/N=C(\C(=O)N[C@@H]1C(=O)N2C(C(=O)O)=C(CCNC(=O)Nc3ccc(O)c(O)c3)CSC12)c1csc(N)n1)C(=O)O (stereo partly drawn) | 0.125 (≈ 0.192 µM)
16 | CC(=O)Oc1ccc(C(=O)OCC2=C(C(=O)O)N3C(=O)[C@@H](NC(=O)Cc4cccs4)C3SC2)cc1OC(C)=O (stereo partly drawn) | > 128

Each compound was assayed on Providencia stuartii (assay: microbe, parasite or virus in culture).
Description: Minimum inhibitory concentration in Pseudomonas stuartii, DR 442049 constitutive depressed type 1 lactamase producer

Row | Compound | MIC [µg/mL]
17 | CC(C)(O/N=C(\C(=O)N[C@@H]1C(=O)N2C(C(=O)O)=C(CCNC(=O)Nc3ccc(O)c(O)c3)CSC12)c1csc(N)n1)C(=O)O (stereo partly drawn) | 16 (≈ 24.6 µM)
18 | CC(=O)Oc1ccc(C(=O)OCC2=C(C(=O)O)N3C(=O)[C@@H](NC(=O)Cc4cccs4)C3SC2)cc1OC(C)=O (stereo partly drawn) | > 128

Test system: Citrobacter freundii
Assay: microbe, parasite or virus in culture
Remark: another data set of the same source
Description: Minimum inhibitory concentration in Citrobacter freundii, DR 382031 constitutive depressed type 1

Row | Compound | MIC [µg/mL]
19 | CC(C)(O/N=C(\C(=O)N[C@@H]1C(=O)N2C(C(=O)O)=C(CCNC(=O)Nc3ccc(O)c(O)c3)CSC12)c1csc(N)n1)C(=O)O (stereo partly drawn) | 8 (≈ 12.3 µM)
20 | CC(=O)Oc1ccc(C(=O)OCC2=C(C(=O)O)N3C(=O)[C@@H](NC(=O)Cc4cccs4)C3SC2)cc1OC(C)=O (stereo partly drawn) | > 128

What follows are compounds tested on Escherichia coli (assay: microbe, parasite or virus in culture).
Description: In vitro minimum inhibitory concentration against Escherichia coli (DC2 permeability mutant).

Row | Compound | MIC [µg/mL]
21 | CC(C)(O/N=C(\C(=O)N[C@@H]1C(=O)N2C(C(=O)O)=C(CCNC(=O)Nc3ccc(O)c(O)c3)CSC12)c1csc(N)n1)C(=O)O (stereo partly drawn) | 0.015 (≈ 0.0231 µM)
22 | CC(=O)Oc1ccc(C(=O)OCC2=C(C(=O)O)N3C(=O)[C@@H](NC(=O)Cc4cccs4)C3SC2)cc1OC(C)=O (stereo partly drawn) | 0.03 (≈ 0.0522 µM)

Test system: Escherichia coli
Assay: microbe, parasite or virus in culture
Remark: another data set of the same source
Description: In vitro minimum inhibitory concentration against Escherichia coli (DC0 parent organism).

Row | Compound | MIC [µg/mL]
23 | CC(C)(O/N=C(\C(=O)N[C@@H]1C(=O)N2C(C(=O)O)=C(CCNC(=O)Nc3ccc(O)c(O)c3)CSC12)c1csc(N)n1)C(=O)O (stereo partly drawn) | 0.06 (≈ 0.0924 µM)
24 | CC(=O)Oc1ccc(C(=O)OCC2=C(C(=O)O)N3C(=O)[C@@H](NC(=O)Cc4cccs4)C3SC2)cc1OC(C)=O (stereo partly drawn) | 0.5 (≈ 0.87 µM)

Test system: Pseudomonas aeruginosa
Assay: microbe, parasite or virus in culture
Remark: another data set of the same source
Description: Minimum inhibitory concentration in Pseudomonas aeruginosa, 18S inducible type 1 lactamase producer

Row | Compound | MIC [µg/mL]
25 | CC(C)(O/N=C(\C(=O)N[C@@H]1C(=O)N2C(C(=O)O)=C(CCNC(=O)Nc3ccc(O)c(O)c3)CSC12)c1csc(N)n1)C(=O)O (stereo partly drawn) | 0.125 (≈ 0.192 µM)
26 | CC(=O)Oc1ccc(C(=O)OCC2=C(C(=O)O)N3C(=O)[C@@H](NC(=O)Cc4cccs4)C3SC2)cc1OC(C)=O (stereo partly drawn) | > 128

Test system: Pseudomonas aeruginosa
Assay: microbe, parasite or virus in culture
Remark: another data set of the same source
Description: Minimum inhibitory concentration in Pseudomonas aeruginosa, 18SH constitutive depressed type 1 lactamase producer

Row | Compound | MIC [µg/mL]
27 | CC(C)(O/N=C(\C(=O)N[C@@H]1C(=O)N2C(C(=O)O)=C(CCNC(=O)Nc3ccc(O)c(O)c3)CSC12)c1csc(N)n1)C(=O)O (stereo partly drawn) | 0.125 (≈ 0.192 µM)
28 | CC(=O)Oc1ccc(C(=O)OCC2=C(C(=O)O)N3C(=O)[C@@H](NC(=O)Cc4cccs4)C3SC2)cc1OC(C)=O (stereo partly drawn) | > 128

Test system: Enterobacter cloacae
Assay: microbe, parasite or virus in culture
Remark: another data set of the same source
Description: Minimum inhibitory concentration in Enterobacter cloacae, DR 401108 constitutive depressed type 1 lactamase producer

Row | Compound | MIC [µg/mL]
29 | CC(C)(O/N=C(\C(=O)N[C@@H]1C(=O)N2C(C(=O)O)=C(CCNC(=O)Nc3ccc(O)c(O)c3)CSC12)c1csc(N)n1)C(=O)O (stereo partly drawn) | 64 (≈ 98.5 µM)

Test system: Providencia stuartii
Assay: microbe, parasite or virus in culture
Remark: another data set of the same source
Description: Minimum inhibitory concentration in Pseudomonas stuartii, I+442019 inducible type 1 lactamase producer

Row | Compound | MIC [µg/mL]
30 | CC(C)(O/N=C(\C(=O)N[C@@H]1C(=O)N2C(C(=O)O)=C(CCNC(=O)Nc3ccc(O)c(O)c3)CSC12)c1csc(N)n1)C(=O)O (stereo partly drawn) | 2 (≈ 3.08 µM)
31 | CC(=O)Oc1ccc(C(=O)OCC2=C(C(=O)O)N3C(=O)[C@@H](NC(=O)Cc4cccs4)C3SC2)cc1OC(C)=O (stereo partly drawn) | 64 (≈ 111 µM)

Test system: Enterobacter cloacae
Assay: microbe, parasite or virus in culture
Remark: another data set of the same source
Description: Minimum inhibitory concentration in Enterobacter cloacae, P99- inducible type 1 lactamase producer

Row | Compound | MIC [µg/mL]
32 | CC(C)(O/N=C(\C(=O)N[C@@H]1C(=O)N2C(C(=O)O)=C(CCNC(=O)Nc3ccc(O)c(O)c3)CSC12)c1csc(N)n1)C(=O)O (stereo partly drawn) | 1 (≈ 1.54 µM)
33 | CC(=O)Oc1ccc(C(=O)OCC2=C(C(=O)O)N3C(=O)[C@@H](NC(=O)Cc4cccs4)C3SC2)cc1OC(C)=O (stereo partly drawn) | 16 (≈ 27.8 µM)
